{
  "source": "patent US10702568B2",
  "about": "“Compositions containing silymarin and sulfoalkyl ether cyclodextrin and methods of using the same” (UNIVERSITY OF KANSAS, priority 2015, dated 2020)",
  "key": {"[1]": {"assay": "Permeation across the porcine intestine (Franz diffusion cell)", "format": "in vitro ADME", "settings": "37° C., receiver PBS pH 7.4", "protocol": "The Silymarin-CAPTISOL® complex was tested for its permeability in the GI tract using the porcine intestine and the silymarin solution without CAPTISOL® as a control sample. Freshly excised porcine intestine was cleaned and sandwiched between the two chambers of a Franz diffusion cell with an active diffusion area of 0.64 cm^2. The donor chamber was filled with 0.5 ml of CAPTISOL® enabled silymarin solution (prepared using ligand method) or pure silymarin in Phosphate buffered saline (PBS): Ethanol (80:20) used as a positive control. Receiver chamber was filled with 5 ml of PBS, pH 7.4, which is stirred at 600 rpm with a 3 mm magnetic stir bar at 37° C. temperature maintained with a circulating water bath. 200 μL of buffer from receiver side was withdrawn at different time intervals (0, 1, 2, 4, 6 and 8 h) and equal volume was replaced with fresh PBS buffer. Above samples were transferred into vials and subjected to HPLC analysis.\nThe control sample was prepared by adding excess of the silymarin extract to Phosphate buffered saline (PBS): Ethanol (80:20). These samples were shook at room temperature for 24 hr, and at equilibrium the samples were centrifuged at 10,000 RPM and filtered using Millipore (0.22 μm) syringe filter. The filtrates were analyzed using HPLC for Taxifolin, Silychristin, Silydianin, Silybin A, Silybin B, Isosilybin A and Isosilybin B after appropriate dilution. […]"}, "[2]": {"assay": "Pharmacokinetic study in rat", "format": "in vivo", "settings": "oral, FIG. 21A", "protocol": "The Silymarin-CAPTISOL® complex was administered to rat to test its pharmacokinetic properties.\nOn arrival rats were housed individually in cages at animal care facility in a temperature and humidity controlled room with a 12 h:12 h (light:dark) cycles. The rats were provided with free access to food and water for one week before using for experimental purpose. The 12 rats were equally divided into three groups—Group I: silymarin-CAPTISOL® complex with a CAPTISOL® concentration of 100 mM for oral administration; Group II: silymarin suspension (Control); and Group III: silymarin complex with a CAPTISOL® concentration of 100 mM for intravenous administration. The animals were fasted overnight with free access to water. On the day of experiment, the rat was removed from animal care facility and brought to the procedure lab. The animal was weighed and appropriate dosing volume was determined. For oral administration, rat's head was held in place by gently extending the head back and supporting the lower body. The gavage tube was placed in the mouth and advanced along the lower palate till the esophagus, and the silymarin was administered through the tube. For intravenous administration, the silymarin-CAPTISOL® complex was administered by slow bolus intravenous injection into the tail vein. Approximately 200 μL blood was drawn into heparin coated tubes at pre dose, 0.15, 0.5, 1, 2, 4, 8, 10 and 24 h for oral group II and for intravenous group III. The sampling time points were predose, 0.12, 0.25, 0.5, 1, 2, 4, 8 and 24 h through the jugular vein catheter. Plasma was harvested by centrifuging the blood at 4000 RPM for 5 min and stored frozen at −80±10° C. until analysis.\nStored plasma was thawed just before performing the silymarin components analysis. 200 μL of acetonitrile containing 0.1% of ammonia was added to 50 μL of plasma, and this mixture was vortexed for 5 min and centrifuged at 4° C. for 5 min at 10,000 RPM. After centrifugation, the supernatant was separated and injected into HPLC for analysis of silymarin constituents taxifolin, silydianin, silychristin, silybin A, silybin B, isosilybin A and isosilybin B.\nThe plasma concentration-time curves of silybin A, silybin B, isosilybin A, and isosilybin B in the Silymarin-CAPTISOL® sample of Group I and the control sample (silymarin suspension) are respectively shown in FIGS. 20A to 20D."}},
  "data": [
    {"smiles": "O=C1c2c(O)cc(O)cc2O[C@H](c2ccc(O)c(O)c2)[C@H]1O", "note": "[Taxifolin]", "values": [
      {"measurement": "Apparent permeability coefficient Papp × 10^−3", "setting": "[1]; Silymarin CAPTISOL® complex in donor chamber", "value": "9.46 × 10^−3"},
      {"measurement": "Apparent permeability coefficient Papp × 10^−3", "setting": "[1]; Silymarin in Ethanol:PBS (20:80) (control)", "value": "1.12 × 10^−3"},
      {"measurement": "AUC of Silymarin-CAPTISOL® complex compared with the control sample", "setting": "[2]", "value": "higher AUC"}
    ]}
  ]
}
